Assay results: ChEMBL document CHEMBL4251584, “Xanthine oxidase inhibitory activity of natural and hemisynthetic flavonoids from Gardenia oudiepe (Rubiaceae) in vitro and molecular docking studies” (Eur J Med Chem, 2018)

Columns and labels:
[1] = target: T1, Xanthine dehydrogenase/oxidase (Bos taurus, UniProt P80457); experiment: Inhibition of bovine milk xanthine oxidase using xanthine as substrate preincubated for 15 mins followed by substrate addition measured after 30 mins by UV-VIS spectrophotometric analysis; settings: for inhibition (INH): cattle, 0.5 h
T1 sequence (P80457 whole entry): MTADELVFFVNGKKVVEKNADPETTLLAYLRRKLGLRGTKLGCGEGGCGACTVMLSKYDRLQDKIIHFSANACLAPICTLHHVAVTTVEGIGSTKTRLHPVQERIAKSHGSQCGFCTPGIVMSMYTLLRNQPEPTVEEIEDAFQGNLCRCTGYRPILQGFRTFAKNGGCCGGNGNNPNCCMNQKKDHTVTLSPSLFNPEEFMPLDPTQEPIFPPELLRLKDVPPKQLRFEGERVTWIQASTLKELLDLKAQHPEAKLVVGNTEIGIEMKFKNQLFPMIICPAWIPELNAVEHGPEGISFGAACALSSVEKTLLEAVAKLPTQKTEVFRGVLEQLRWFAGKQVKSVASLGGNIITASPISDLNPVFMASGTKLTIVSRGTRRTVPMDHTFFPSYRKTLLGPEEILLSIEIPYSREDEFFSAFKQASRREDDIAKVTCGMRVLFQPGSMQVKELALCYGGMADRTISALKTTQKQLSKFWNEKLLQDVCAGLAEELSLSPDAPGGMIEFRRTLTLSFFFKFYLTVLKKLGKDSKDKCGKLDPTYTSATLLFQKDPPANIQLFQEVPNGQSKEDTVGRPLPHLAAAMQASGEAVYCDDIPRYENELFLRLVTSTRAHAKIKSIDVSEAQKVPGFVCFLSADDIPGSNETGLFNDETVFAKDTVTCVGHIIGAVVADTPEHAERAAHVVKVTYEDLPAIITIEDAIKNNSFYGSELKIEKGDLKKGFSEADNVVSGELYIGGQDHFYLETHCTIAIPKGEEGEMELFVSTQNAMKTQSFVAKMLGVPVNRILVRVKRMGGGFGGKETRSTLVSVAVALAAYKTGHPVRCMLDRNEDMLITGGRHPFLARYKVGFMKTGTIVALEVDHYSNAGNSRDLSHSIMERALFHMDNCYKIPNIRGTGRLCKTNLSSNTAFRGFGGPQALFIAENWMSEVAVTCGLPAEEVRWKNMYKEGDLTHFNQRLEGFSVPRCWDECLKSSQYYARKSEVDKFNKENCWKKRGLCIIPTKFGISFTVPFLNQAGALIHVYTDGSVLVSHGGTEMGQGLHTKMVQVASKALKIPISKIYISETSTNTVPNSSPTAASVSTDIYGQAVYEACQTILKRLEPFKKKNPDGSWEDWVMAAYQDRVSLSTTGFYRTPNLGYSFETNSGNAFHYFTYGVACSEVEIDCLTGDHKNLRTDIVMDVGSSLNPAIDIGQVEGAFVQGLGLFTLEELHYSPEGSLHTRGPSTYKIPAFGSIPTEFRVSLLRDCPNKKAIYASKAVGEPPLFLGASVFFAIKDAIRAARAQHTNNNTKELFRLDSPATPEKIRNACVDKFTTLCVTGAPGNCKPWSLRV

[2] = target: T1, Xanthine dehydrogenase/oxidase; experiment: Potency index, ratio of IC50 for allopurinol to IC50 for test compound for inhibition of bovine milk xanthine oxidase using xanthine as substrate preincubated for 15 mins followed by substrate addition measured after 30 mins by UV-VIS spectrophotometric analysis; settings: cattle, 0.5 h

SMILES | IC50 [1] | inhibition (INH) [1] | Ratio IC50 [2]
COc1cc(-c2oc3cc(O)cc(O)c3c(=O)c2OC)cc(O)c1OC | 0.09 µM | Dose-dependent effect | 3
COc1cc(-c2oc3cc(O)c(OC)c(O)c3c(=O)c2OC)cc(OC)c1OC | 4.54 µM | Dose-dependent effect | 
COc1cc(-c2oc3cc(O)c(OC)c(O)c3c(=O)c2OC)cc(O)c1OC | 6.95 µM | Dose-dependent effect | 
COc1cc(O)c2c(=O)c(OC)c(-c3cc(O)c(OC)c(OC)c3)oc2c1 | 21 µM | Dose-dependent effect | 
COc1ccc(-c2oc3cc(OC)c(OC)c(O)c3c(=O)c2OC)cc1 | 14.9 µM | Dose-dependent effect | 
COc1ccc(-c2oc3cc(OC)cc(O)c3c(=O)c2OC)cc1 | 9.79 µM | Dose-dependent effect | 

The next lines start with results.

IC50 [1] | inhibition (INH) [1] | SMILES | Ratio IC50 [2]
0.05 µM | Dose-dependent effect | COc1c(O)cc2oc(-c3ccc(O)cc3)c(OC)c(=O)c2c1O [3,6-DIMETHOXY KAEMPFEROL] | 5
0.004 µM | Dose-dependent effect | COc1c(-c2ccc(O)cc2)oc2cc(O)cc(O)c2c1=O [ISOKAEMPFERIDE] | 63
0.22 µM | Dose-dependent effect | COc1ccc(-c2oc3cc(O)c(OC)c(O)c3c(=O)c2OC)cc1 [SANTIN] | 
